Values quoted from earlier work, collected in patent US10952973B2, “Production method of pregabalin-containing composition and pregabalin-containing composition” (NITTO DENKO CORPORATION, priority 2018, dated 2021).

| SMILES | acid dissociation constant (pKa) of the carboxyl group (carboxyl group of pregabalin) | pKa of the acid aqueous solution (23° C., 0.35 mol/L aqueous solution) |
| --- | --- | --- |
| CC(C)C[C@H](CN)CC(=O)O [pregabalin, Pregabalin] | about 4.2 |  |
| CCCCCCCCCCCCOS(=O)(=O)O [dodecylsulfuric acid] |  | −3 |
